According to patent US20070275961A1, “Triazolo ' 1, 5-A ! Pyrimidines and Their Use in Medicine” (VERNALIS (CAMBRIDGE) LIMITED., priority 2003, published 2007):
Where two headings read alike, the source gives them in different places.

Legend:
Assay type in all cases: biochemical
[1] = target: CDK2 enzyme, complexed with cyclin A (Homo sapiens, UniProt P24941); assay: CDK2 cyclin dependent kinase assay, phosphorylation of synthetic peptide […] (33P-ATP filtration); conditions: 0.1 mM ATP
PDK1 enzyme = target: T1, PDK1 enzyme (Homo sapiens, UniProt O15530); assay: PDK1 3'-phosphoinositide-dependent kinase assay, phosphorylation of synthetic peptide (33P-ATP filtration); conditions: 0.01 mM ATP, read-out: PDK1 IC50
T1 sequence (O15530 1-556): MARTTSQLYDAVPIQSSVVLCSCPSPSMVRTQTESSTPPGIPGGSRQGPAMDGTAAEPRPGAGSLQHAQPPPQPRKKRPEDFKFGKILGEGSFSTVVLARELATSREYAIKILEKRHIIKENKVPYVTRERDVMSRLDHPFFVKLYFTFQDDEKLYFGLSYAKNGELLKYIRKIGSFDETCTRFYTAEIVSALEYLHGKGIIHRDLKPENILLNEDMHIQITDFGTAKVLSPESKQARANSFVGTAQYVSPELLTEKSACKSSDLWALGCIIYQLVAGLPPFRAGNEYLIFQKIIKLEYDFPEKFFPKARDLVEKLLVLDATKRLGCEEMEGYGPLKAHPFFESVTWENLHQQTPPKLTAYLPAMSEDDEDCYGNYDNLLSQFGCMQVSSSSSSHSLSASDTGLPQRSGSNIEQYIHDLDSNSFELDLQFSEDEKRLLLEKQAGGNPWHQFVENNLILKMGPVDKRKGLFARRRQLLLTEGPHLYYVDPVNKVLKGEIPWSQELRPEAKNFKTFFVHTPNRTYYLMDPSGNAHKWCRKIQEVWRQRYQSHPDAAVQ
Procedure, shortened: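 Radiometric peptide phosphorylation by PDK1 with inhibitor, 60 min at 30 °C, using 0.01 mM ATP plus 33P-γ-ATP, 0.075 mM peptide, 7.5 mM Mg acetate in Tris-HCl pH 7.5. Phosphoric acid stopped reaction; phosphorylated peptide captured on filter plates and counted by scintillation.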

Chk1 = target: T2, Chk1 (Homo sapiens, UniProt O14757); assay: Chk1 kinase assay, phosphorylation of Chktide (33P-ATP filtration); conditions: 0.01 mM ATP, read-out: Chk1 IC50
T2 sequence (O14757 1-476): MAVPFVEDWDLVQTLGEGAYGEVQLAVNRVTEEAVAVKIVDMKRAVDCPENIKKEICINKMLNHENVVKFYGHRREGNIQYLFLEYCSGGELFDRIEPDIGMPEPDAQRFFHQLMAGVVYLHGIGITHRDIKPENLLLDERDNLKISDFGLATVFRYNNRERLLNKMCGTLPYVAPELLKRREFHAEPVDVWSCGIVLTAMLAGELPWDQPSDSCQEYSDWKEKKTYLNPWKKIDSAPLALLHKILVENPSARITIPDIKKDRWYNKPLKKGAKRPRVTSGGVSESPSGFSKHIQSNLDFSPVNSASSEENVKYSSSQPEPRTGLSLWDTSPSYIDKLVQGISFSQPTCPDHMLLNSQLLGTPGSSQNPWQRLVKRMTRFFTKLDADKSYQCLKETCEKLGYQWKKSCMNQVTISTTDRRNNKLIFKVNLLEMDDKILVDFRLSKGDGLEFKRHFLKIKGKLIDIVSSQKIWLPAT
Procedure, shortened: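 GST-Chk1 (11 nM) with inhibitor, 30 μM Chktide peptide, 0.01 mM ATP plus 33P-γ-ATP in 50 mM Hepes pH 7.5 with 0.1 mg/ml BSA, 40 min at 30° C. Stopped with phosphoric acid; phosphorylated peptide captured on filter plates and scintillation-counted.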

CCN(CC)CCNC(=O)c1ccc(Nc2cc(-c3cccc(C)c3)n3ncnc3n2)cc1 [Example 105]
IC50 ([1]; Table 3): > 200 µM
IC50 (PDK1 enzyme; Table 3): 6.1 µM
IC50 (Chk1; Table 3): 5.45 µM

CCN(CC)c1cc(Nc2ccc(S(=O)(=O)C(F)(F)F)cc2)n2ncnc2n1 [Example 70]
IC50 ([1]; Table 2): 2.69 µM
IC50 (PDK1 enzyme; Table 2): > 200 µM
IC50 (Chk1; Table 2): > 200 µM

CCN(CC)c1cc(Nc2ccc(S(=O)(=O)N3CCC(O)CC3)cc2)n2ncnc2n1 [Example 72]
IC50 ([1]; Table 2): 0.38 µM
IC50 (PDK1 enzyme; Table 2): > 200 µM
IC50 (Chk1; Table 2): > 200 µM

NC(=O)c1sccc1Nc1cc(Cl)nc2ncnn12 [Example 47]
IC50 ([1]; Table 1): > 200 µM
IC50 (PDK1 enzyme; Table 1): > 200 µM
IC50 (Chk1; Table 1): > 200 µM

CN1CCN(c2cc(Nc3ccc(S(C)(=O)=O)cc3)n3ncnc3n2)CC1 [Example 63]
IC50 ([1]; Table 2): 46.2 µM
IC50 (PDK1 enzyme; Table 2): > 200 µM
IC50 (Chk1; Table 2): > 200 µM

Oc1ccccc1-c1cc(Nc2ccc3cn[nH]c3c2)n2ncnc2n1 [Example 60]
IC50 ([1]; Table 2): 1.91 µM
IC50 (PDK1 enzyme; Table 2): > 200 µM
IC50 (Chk1; Table 2): > 200 µM

NS(=O)(=O)c1ccc(Nc2cc(N[C@H]3CC[C@H](O)CC3)nc3ncnn23)cc1 [Example 68]
IC50 ([1]; Table 2): 7.4 µM
IC50 (PDK1 enzyme; Table 2): > 200 µM
IC50 (Chk1; Table 2): > 200 µM

O=S(=O)(c1ccc(Nc2cc(-c3cccc(F)c3)n3ncnc3n2)cc1)N1CCOCC1 [Example 130]
IC50 ([1]; Table 3): > 200 µM
IC50 (PDK1 enzyme; Table 3): 34.2 µM
IC50 (Chk1; Table 3): 26.9 µM

CN(C)S(=O)(=O)c1ccc(Nc2cc(Cl)nc3ncnn23)cc1 [Example 8]
IC50 ([1]; Table 1): 48.2 µM
IC50 (PDK1 enzyme; Table 1): > 200 µM
IC50 (Chk1; Table 1): > 200 µM

NS(=O)(=O)c1ccc(CNc2cc(Cl)nc3ncnn23)cc1 [Example 38]
IC50 ([1]; Table 1): 15 µM
IC50 (PDK1 enzyme; Table 1): > 200 µM
IC50 (Chk1; Table 1): > 200 µM

NC(=O)c1sccc1Nc1cc(-c2ccsc2)nc2ncnn12 [Example 44]
IC50 ([1]; Table 1): 60.3 µM
IC50 (PDK1 enzyme; Table 1): > 200 µM
IC50 (Chk1; Table 1): > 200 µM

CCN(CC)CCNC(=O)c1ccc(Nc2cc(C)n3ncnc3n2)cc1 [Example 120]
IC50 ([1]; Table 3): > 200 µM
IC50 (PDK1 enzyme; Table 3): > 200 µM
IC50 (Chk1; Table 3): 0.82 µM

CC(C)N(CCO)c1cc(Nc2ccc(S(C)(=O)=O)cc2)n2ncnc2n1 [Example 87]
IC50 ([1]; Table 2): 1.49 µM
IC50 (PDK1 enzyme; Table 2): > 200 µM
IC50 (Chk1; Table 2): > 200 µM

NC(=O)c1cccc(Nc2cc(Cl)nc3ncnn23)c1 [Example 22]
IC50 ([1]; Table 1): 36.7 µM
IC50 (PDK1 enzyme; Table 1): > 200 µM
IC50 (Chk1; Table 1): > 200 µM

CCc1cc(OCCN)cc(-c2cc(Nc3ccc(C(N)=O)cc3)nc3ncnn23)c1 [Example 166]
IC50 ([1]; Table 4): 2.58 µM
IC50 (PDK1 enzyme; Table 4): 1.2 µM
IC50 (Chk1; Table 4): 2.7 µM

CC(C)(C)OC(=O)N1CCC(CNc2cc(Cl)nc3ncnn23)CC1 [Example 76]
IC50 ([1]; Table 2): > 200 µM
IC50 (PDK1 enzyme; Table 2): > 200 µM
IC50 (Chk1; Table 2): > 200 µM

COc1ccc(-c2cc(Nc3cccc(Cl)c3)n3ncnc3n2)nc1 [Example 54]
IC50 ([1]; Table 1): > 200 µM
IC50 (PDK1 enzyme; Table 1): > 200 µM
IC50 (Chk1; Table 1): > 200 µM

Cc1ccc(-c2cc(Nc3ccc(C(N)=O)cc3)nc3ncnn23)cc1 [Example 138]
IC50 ([1]; Table 3): > 200 µM
IC50 (PDK1 enzyme; Table 3): 4.21 µM
IC50 (Chk1; Table 3): 26.1 µM

COc1ccc(OC)c(Cc2cc(Nc3ccc(C(N)=O)cc3)nc3ncnn23)c1 [Example 127]
IC50 ([1]; Table 3): > 200 µM
IC50 (PDK1 enzyme; Table 3): > 200 µM
IC50 (Chk1; Table 3): 106 µM

NS(=O)(=O)c1ccc(Nc2cc(N3CCCCC3)nc3ncnn23)cc1 [Example 34]
IC50 ([1]; Table 1): 0.62 µM
IC50 (PDK1 enzyme; Table 1): > 200 µM
IC50 (Chk1; Table 1): > 200 µM

CCN(CC)CCNC(=O)c1ccc(Nc2cc(-c3cccc(C#N)c3)nc3ncnn23)cc1 [Example 28]
IC50 ([1]; Table 1): 18.6 µM
IC50 (PDK1 enzyme; Table 1): > 200 µM
IC50 (Chk1; Table 1): > 200 µM

NS(=O)(=O)c1ccc(Nc2cc(N3CCCC3)nc3ncnn23)cc1 [Example 20]
IC50 ([1]; Table 1): 3.33 µM
IC50 (PDK1 enzyme; Table 1): > 200 µM
IC50 (Chk1; Table 1): > 200 µM

CCN(CC)CCNC(=O)c1ccc(Nc2cc(-c3cccc(OCCN)c3)n3ncnc3n2)cc1 [Example 165]
IC50 ([1]; Table 4): 7.89 µM
IC50 (PDK1 enzyme; Table 4): 0.81 µM
IC50 (Chk1; Table 4): 1.4 µM

NC(=O)c1ccc(Nc2cc(Cl)nc3ncnn23)cc1 [Example 49]
IC50 ([1]; Table 1): 24.1 µM
IC50 (PDK1 enzyme; Table 1): > 200 µM
IC50 (Chk1; Table 1): > 200 µM
